This is an account of results in US11083714B2, “Selective anti-cancer agent effective for prevention and treatment” (Molecular International Research, Inc., priority 2018, dated 2021).

SMILES strings stand for the structures.

For data set [1] the following is noted: mouse, in vivo. As to the method:
To estimate the maximum tolerated dose of compounds 13-7-2 and 13-9-1 in mice, both compounds were dissolved in PBS and given to SCID mice by oral gavage.
Compound 13-7-2 was administered at a dose of 100 mg/kg, 150 mg/kg, or 200 mg/kg. Each dose group consisted of three mice.
Compound 13-9-1 was administered at a dose of 100 mg/kg, 150 mg/kg, or 200 mg/kg by oral gavage (three mice per dose group).
In a separate dose finding/toxicity test with compound 13-9-1, three mice received escalating doses of 50 mg/kg/day for 3 days, 100 mg/kg/day for 7 days, 200 mg/kg/day for 7 days, and 300 mg/kg/day for 3 days, given by oral gavage. Mice were monitored closely for toxic signs.

For a further data set, the system named is PANC-1 tumors. The experiment in a line: Orthotopic PANC-1 luciferase tumors in nude mice. Format: in vivo. The text has this:
FIG. 16. Animal Study. PANC-1 cells with luciferase gene were orthotopically implanted into the pancreas of nude mice and the tumors were monitored by live-animal imaging. Longitudinal tumor growth shown by quantification of all images in the treated group (lozenges, n=9) and the untreated group (squares, n=10). Tumor burden is represented by average total photon flux (top) and its log transform (bottom).
Human PANC-1 pancreatic cancer cells were transfected with the luciferase gene to enable imaging in vivo. These cells were transplanted into the pancreas of nude mice and, after 10 days, tumors were established in the mice and they were treated with de-ethylflavopereirine by oral gavage. Longitudinal tumor progress was followed by live-animal imaging. The results of this experiment are depicted in FIGS. 16 to 21.

For data set [2], the system named is two human breast cancer cell lines. The data set is described as follows: Proliferation of breast cancer cell lines. Format: cell-based. On the procedure: The primary goal of synthesizing de-ethylflavopereirine (compound 13-9-1) was to generate a different compound that still retains the anti-cancer cell activity of flavopereirine (compound 13-7-2). Comparison of the effects of the two compounds on proliferation of a variety of cancer cells confirmed that this goal was achieved. For example, the effect of de-ethylflavopereirine on two human breast cancer cell lines and two human prostate cancer cell lines were analyzed.

With `c1ccc2c(c1)[nH]c1c2cc[n+]2ccccc12` [Compound 13-9-1, 12H-indolo[2,3-a]quinolizin-5-ium], the “tolerated dose, oral administration” value in data set [1] (SCID) was no less than 300 mg/kg. The deaths result in data set [1] (SCID, po, 200 mg/kg, 48 hr) is “One mouse in the 200 mg/kg group died 15 min after the administration of the compound (apparently due to trauma caused by oral gavage)”. Besides, the toxic signs entry in data set [1] (po, 50 mg/kg/day) is given as “No abnormality was observed”. The “body weight compared with untreated control group” value in the data set with PANC-1 tumors (day 0 through day 40) is given as “indistinguishable”. Also, in the data set on PANC-1 tumors (oral gavage), the “mice whose tumors were completely abolished” value came out at 22%. In addition, the “anti-tumor effect by tumor burden (total photon flux)” value in the data set on PANC-1 tumors (oral gavage, treated (n=9) vs untreated (n=10)) is on record as “significant”. Further, the “mice whose tumors were completely abolished (number of animals)” value in the data set on PANC-1 tumors (oral gavage, listed as de-ethylflavopereirine) was 2/9 and two of 21. For the same compound, in the data set on PANC-1 tumors (treated vs untreated), the “examination of internal organs” value is “failed to reveal any toxic effects”, the “final tumor weights at necropsy” value was “statistically significant reduction” and the “metastatic lesions at necropsy” value is reported as “reduced”. Also, the “IC50 compared with flavopereirine” value in data set [2] was “same IC50s”.
